Assay results taken from patent US8618074B2, “GPCR enhanced neuroprotection to treat brain injury” (Board of Regents of the University of Texas System, priority 2007, dated 2013).

Experiments:
astrocytes [1] = experiment: Fura-2 two-photon imaging of intracellular Ca2+ response; format: cell-based, mouse
Description: Ca^2+ activity was imaged as previously described (Camacho and Lechleiter, 1995). In brief, cultured astrocytes were incubated with the fura-2 am (Molecular Probes, #F-1221) 30 min prior to the experiment. Images were acquired with two-photon excitation (800 nm) at the rate of 1.5 images/ sec. […] Images were analyzed with Image J and ANALYZE® software (the Mayo Foundation, Rochester, MN). The D-enantiomer of the 1P3-BM ester was synthesized by Stuart Conway in the Cambridge University Chemical Laboratory by using a modification of the protocol of Tsien and co-workers (Li et al., 1997).
The primary response of glial cells to extracellular ATP is an increase in intracellular Ca^2+. To investigate whether the protective effect of ATP could be initiated by a Ca^2+ response, we loaded cultures of astrocytes with the Ca^2+ indicator dye Fura-2 AM (10 μM for 30 minutes). Fura-2 fluorescence was imaged with 2-photon microscopy using 800 nm excitation. At this wavelength, fluorescence is primarily due to the Ca^2+ free form of fura-2. […] When young astrocyte cultures were exposed to extracellular ATP (10 μM for 10 minutes), the peak intracellular Ca^2+ (−ΔF/F) was increased to 0.46±0.02 (n=25, pooled from 2 experiments). […] We tested whether the ATP-induced Ca^2+ response could be attributed to the metabotropic pathway, since IP3 mediated Ca^2+ release can stimulate mitochondrial energy production as well as sensitize mitochondria to apoptotic stimuli. Astrocytes cultured from old mice were pretreated with Xestospongin C (XeC, 25 μM for 30 minutes), which is a competitive inhibitor of IP3 binding to the IP3R. […] This is consistent with other reports showing that activation of the ionotropic P2X receptor activation also increases Ca^2+ in cultured astrocytes. To determine whether the metabotropic pathway was involved with the protective effect of extracellular ATP, we subsequently exposed the XeC/ATP treated astrocytes to oxidative stress. As described above, the perfusate contained t-BuOOH (100 μM) and TMRE (200 nM) to monitor ΔΨ. Under these experimental conditions, the average time until ΔΨ collapse was reduced to 5.48±0.22 (n=23, pooled from 2 experiments) in young astrocytes (FIG. 1C) and to 4.02±0.18 h (n=19, pooled from 2 experiments) in old astrocytes (FIG. 2C). […] We concluded that the protective effect of ATP on astrocytes was mediated by P2Y-receptors (P2Y-Rs).

astrocytes [2] = experiment: Rose Bengal induced blood clot, Fluo4 Ca2+ imaging of astrocytes in live mouse; format: in vivo; settings: 2-MeSADP co-injected with Rose Bengal in tail vein; blood brain barrier breakdown at clot
Description: Our working hypothesis states that P2Y-R activation in astrocytes leads to intracellular Ca^2+ release. […] In this experiment, the Ca^2+ indicator Fluo4-AM was loaded into astrocytes (90 minutes, 100 μM). Rose Bengal (RB) and the P2Y-R specific agonist 2-MeSADP were then co-injected in the tail vein of a live mouse. RB was illuminated with green light (543 nm), inducing reactive singlet oxygen and blood clots. A blood vessel was free flowing at 180 minutes, then clotted around 220 minutes after RB injection. […] More distal astrocytes a4 and a5 were not activated.

astrocytes [3] = experiment: Single cell astrocyte edema (swelling) after RB-induced photothrombotic event; format: in vivo, mouse; settings: tail-vein injection
Text: A critical role for mitochondrial metabolism is also supported by new data obtained from a transgenic mouse model expressing a mitochondrial targeted DNA restriction enzyme, EcoR1, under the control of doxycycline (tTA/mtEcoR1, courtesy of Dr. Chris Walters, UTHSCSA). […] In addition to optically imaging multiple physiological parameters in single cells (e.g. mitochondrial membrane potentials and Ca2+ levels in real time), we have successfully imaged single cells edema formation in response to a Rose Bengal (RB)-induced photothrombotic event in a single blood vessel. Our preliminary measurements indicate that astrocyte volume increases over 6-fold during edema formation.

Compound	peak Ca2+ amplitude (−ΔF/F) (astrocytes [1]; old astrocytes, ATP 10 μM)	peak intracellular Ca2+ (−ΔF/F) (astrocytes [1]; young astrocytes, ATP 10 μM for 10 minutes)	activation (Ca2+) of astrocytes near the RB-induced clot (astrocytes [2])	astrocyte swelling (edema) (astrocytes [3])	time to apparently complete reversal of astrocyte swelling after the initial clot (astrocytes [3]) [h]
Nc1ncnc2c1ncn2[C@@H]1O[C@H](COP(=O)(O)OP(=O)(O)OP(=O)(O)O)[C@@H](O)[C@H]1O [ATP]	0.46±0.04	0.46±0.02	–	–	–
CSc1nc(N)c2ncn([C@@H]3O[C@H](COP(=O)(O)OP(=O)(O)O)[C@@H](O)[C@H]3O)c2n1 [2-MeSADP]	–	–	activate nearby astrocytes	significantly reduced swelling	≤ 8
